The structures appear in SMILES notation.

For this test, the system named is quadriceps muscle of mdx mice. Kind of test: Tissue respirometry on quadriceps muscle. It counts as in vivo, mouse. The note with it: weekly prednisone, opposite to daily dosing. Here is the method: Tissue respirometry. Whole-tissue analysis of basal rates of oxygen consumption (OCR) and extracellular acidification (ECAR) was conducted adapting reported conditions for intact muscle tissue analysis (Shintaku and Guttridge, 2016) to the XF96 Extracellular Flux Analyzer platform (Agilent, Santa Clara, Calif.). Immediately after mouse sacrification, target muscle (quadriceps) tissues were quickly collected, rinsed in clean PBS buffer and dissected into approximately 2×2×2 mm pieces. At least three biopsies were sampled for each tissue. […] Respirometry analysis was then performed on equilibrated tissue biopsies using the following protocol for each basal or post-injection read: 3 min mix, 5 min delay, 2 min measure. Basal rate reads were collected for 6 consecutive times, then drugs were injected and control reads gathered for additional 3 consecutive times. […] Compound concentrations were determined on literature and/or preliminary test assays on wildtype muscle biopsies, and the concentration of the compound when loaded in the cartridge port was 10× in appropriate solvent (typically DMSO or ddH2O). OCR/ECAR reads were averaged for same tissue replicates and subtracted of background noise values (empty wells with only medium and appropriate compound). […]

For the compound `C[C@]12C=CC(=O)C=C1CC[C@@H]1[C@@H]2C(=O)C[C@@]2(C)[C@H]1CC[C@]2(O)C(=O)CO` [prednisone, Prednisone], the glucose-fueled lactate production result is reported as “improved” and the valine-fueled oxygen consumption entry is “improved”.
